Key:
[1] = target: T1, IP3R1 (HEK-IP3R1 cells) (Rattus norvegicus, UniProt P29994); assay: Ca2+ release from permeabilized HEK-IP3R1 cells; type: cell-based; details: at the concentrations used (heparin 10 mg/mL, dequalinium 50 μM, 2-APB 125 μM), permeabilized HEK-IP3R1 cells
T1 construct: expressed in transfected cells
Method: Fluorescence, which is approximately linearly related to ER free [Ca^2+] […] Ca^2+-free CLM comprised: 20 mM NaCl, 140 mM KCl, 1 mM EGTA, 20 mM PIPES, 2 mM MgCl2, pH 7.0. […] MgATP (1.5 mM) was added to initiate Ca^2+ uptake, and when the ER had loaded to steady state with Ca^2+ (∼150 s), ligands were added. Responses to the ligands show ER Ca^2+ contents as either time courses or, in summary results, as the Ca^2+ content recorded 20 s after addition of the stimulus. The distribution of samples across 96-well plates was varied between experiments to avoid any systematic ‘position-related’ artifacts. HEK-G-CEPIA1er cells were permeabilized and assayed as described for Mag-fluo 4-loaded cells.
For equilibrium binding and concentration-effect relationships, results from each experiment were fitted to Hill equations (PRISM) from which pIC50 (-log of half-maximal inhibitory concentration) or pEC50 (-log of half-maximally effective concentration) values were determined.

[2] = system: SERCAs; assay: Ca2+ uptake by the intracellular stores of permeabilized HEK-IP3R1 cells; type: cell-based, Homo sapiens; details: heparin 10 mg/mL
Method: Figure S6. Effects of heparin, 2-APB and dequalinium on IP3Rs and Ca2+ uptake by intracellular […]
Related to Figures 5 and 6.
(A) Structures of the antagonists used.
CLM at 20 °C. Mean ± SEM, n = 3.
(C-F) Permeabilized HEK-IP3R1 cells were loaded with Ca2+, and SERCA was then inhibited with CPA (10 μM) before addition of DMSO (1% v/v; C) or dequalinium (10-100 μM, D-F), and then the indicated […]
Mean of 2 replicates, typical of 5 experiments.
(G) Summary results (mean ± SEM, n = 5, each with duplicate determinations) show Ca2+ released by […]
ER Ca2+ content was measured 20
(H-J) Similar analyses of the effects of heparin (10 mg/mL, I) or 2-APB (125 μM, J). Means of 2 replicates, typical of 3-5 experiments.
(K) Effects of dequalinium (50 μM), heparin (10 mg/mL) or 2-APB (125 μM) on Ca2+ uptake by the intracellular stores of permeabilized HEK-IP3R1 cells. Mean ± SD of 4-6 replicates, typical of 4 […]
(L) and the rate of Ca2+ uptake (M). ER Ca2+ content was measured 180 s after addition of ATP (L).
Mean ± SEM, n = 4, each with 4-6 determinations. ****P < 0.0001, ***P < 0.001, *P < 0.05 one-way ANOVA with Bonferroni's test relative to control.

[3] = target: T2, CFP-TRPML1 (Homo sapiens, UniProt Q9GZU1); assay: ER Ca2+ release from permeabilized HEK cells expressing CFP-TRPML1; type: cell-based
T2 construct: host or cells: HEK cells, transient transfection
T2 sequence (Q9GZU1 whole entry): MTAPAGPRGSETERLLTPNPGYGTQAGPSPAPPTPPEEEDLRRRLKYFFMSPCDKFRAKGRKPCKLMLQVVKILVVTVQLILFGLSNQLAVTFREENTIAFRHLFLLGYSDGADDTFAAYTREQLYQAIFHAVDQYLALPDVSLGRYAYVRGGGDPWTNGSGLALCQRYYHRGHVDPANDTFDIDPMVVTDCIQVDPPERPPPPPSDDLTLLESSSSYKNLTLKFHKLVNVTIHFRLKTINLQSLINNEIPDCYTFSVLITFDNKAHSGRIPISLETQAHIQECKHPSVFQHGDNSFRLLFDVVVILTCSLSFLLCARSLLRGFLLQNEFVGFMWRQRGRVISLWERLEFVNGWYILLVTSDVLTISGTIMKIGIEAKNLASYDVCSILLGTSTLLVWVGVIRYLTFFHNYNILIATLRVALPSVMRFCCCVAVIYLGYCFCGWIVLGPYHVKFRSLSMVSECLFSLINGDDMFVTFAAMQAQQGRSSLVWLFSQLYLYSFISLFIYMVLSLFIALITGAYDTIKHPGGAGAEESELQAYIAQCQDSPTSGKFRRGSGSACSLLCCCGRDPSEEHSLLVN
Description: Figure 4 Neither ER reorganization nor luminal Ca^2+ mediates quantal Ca^2+ release (A) Effects of the indicated concentrations of ML-SA1 on the ER Ca^2+ content of permeabilized HEK cells expressing CFP-TRPML1. (B) Semi-logarithmic plots show mono-exponential loss of ER Ca^2+ after treatment with ML-SA1. Results (A and B) are typical of four experiments, each with duplicate determinations. Summary results are in Figure S5B. (C and D) Permeabilized DT40-IP3R1 cells were loaded to steady state with Ca^2+ before addition of thapsigargin (TG, 1 μM) to inhibit SERCAs. […] Results are typical of 29–36 experiments. […] See also Figure S5.
Incubation of cells with the acetoxymethylester (AM) of Mag-fluo 4 traps low-affinity forms of the indicator ( KdCa = 1.15 mM measured in situ) within the ER. Fluorescence, which is approximately linearly related to ER free [Ca^2+] (since [Ca^2+]ER < KdCa ), can then be used, without further calibration, to reliably report free [Ca^2+] within the ER lumen ([Rossi and Taylor, 2020]). The ER of DT40 or HEK293 cells was loaded with indicator by incubating cells with Mag-fluo 4 AM (20 μM, 60 min, 22°C) in HEPES-buffered saline (HBS: 135 mM NaCl, 5.9 mM KCl, 11.6 mM HEPES, 1.5 mM CaCl2, 11.5 mM glucose, 1.2 mM MgCl2, pH 7.3) as described ([Rossi et al., 2009]). […]

[4] = system: mock-transfected HEK cells; assay: ER Ca2+ release from permeabilized mock-transfected HEK cells; type: cell-based, Homo sapiens; details: ML-SA1 0-100 μM
Method: Figure S5. Evidence that over-expressed TRPML1 releases Ca2+ from ER, and that erlin 2 does not mediate quantal Ca2+ release
Ca2+ uptake into the ER of permeabilized HEK cells was initiated by addition of ATP (1.5 mM), before adding CPA (10 μM) and then the indicated […]
concentration of ML-SA1 (0-100 μM).
(B) Summary results from experiments similar to those shown in Figure 4A show half-times (t1/2) for loss of ER Ca2+ evoked by the indicated concentrations of ML-SA1 (mean ± SEM, n = 4, each with 2 […]
(C) Addition of ATP (1.5 mM) to permeabilized HEK cells stimulates Ca2+ uptake into the ER, reported by the increase in Mag-fluo 4 fluorescence. The response is abolished by CPA (10 µM) added 60 s before ATP. Mean ± SEM, n = 4, each with 2 replicates. RFU, relative fluorescence units.
(D) Permeabilized HEK cells expressing CFP-TRPML1 were treated (60 min) with vehicle (DMSO), bafilomycin A1 (1 µM to inhibit the lysosomal H+ pump) or FCCP (10 µM to dissipate H+ gradients) before addition of ATP (1.5 mM) to initiate Ca2+ uptake. After addition of CPA (10 μM), ML-SA1 (30 µM) was added where indicated. Mean ± SD of 3 replicates. […]
(F) TIRFM images show expression of CFP-TRPML1 and EGFP-IP3R1 in HEK cells expressing both proteins, typical of 3 independent experiments (~10 cells in each). […] It was impracticable, when most CFP-TRPML1 is lysosomal, to quantify any colocalization with IP3Rs. […]

T1 sequence (P29994 1-2735 isoform P29994-2): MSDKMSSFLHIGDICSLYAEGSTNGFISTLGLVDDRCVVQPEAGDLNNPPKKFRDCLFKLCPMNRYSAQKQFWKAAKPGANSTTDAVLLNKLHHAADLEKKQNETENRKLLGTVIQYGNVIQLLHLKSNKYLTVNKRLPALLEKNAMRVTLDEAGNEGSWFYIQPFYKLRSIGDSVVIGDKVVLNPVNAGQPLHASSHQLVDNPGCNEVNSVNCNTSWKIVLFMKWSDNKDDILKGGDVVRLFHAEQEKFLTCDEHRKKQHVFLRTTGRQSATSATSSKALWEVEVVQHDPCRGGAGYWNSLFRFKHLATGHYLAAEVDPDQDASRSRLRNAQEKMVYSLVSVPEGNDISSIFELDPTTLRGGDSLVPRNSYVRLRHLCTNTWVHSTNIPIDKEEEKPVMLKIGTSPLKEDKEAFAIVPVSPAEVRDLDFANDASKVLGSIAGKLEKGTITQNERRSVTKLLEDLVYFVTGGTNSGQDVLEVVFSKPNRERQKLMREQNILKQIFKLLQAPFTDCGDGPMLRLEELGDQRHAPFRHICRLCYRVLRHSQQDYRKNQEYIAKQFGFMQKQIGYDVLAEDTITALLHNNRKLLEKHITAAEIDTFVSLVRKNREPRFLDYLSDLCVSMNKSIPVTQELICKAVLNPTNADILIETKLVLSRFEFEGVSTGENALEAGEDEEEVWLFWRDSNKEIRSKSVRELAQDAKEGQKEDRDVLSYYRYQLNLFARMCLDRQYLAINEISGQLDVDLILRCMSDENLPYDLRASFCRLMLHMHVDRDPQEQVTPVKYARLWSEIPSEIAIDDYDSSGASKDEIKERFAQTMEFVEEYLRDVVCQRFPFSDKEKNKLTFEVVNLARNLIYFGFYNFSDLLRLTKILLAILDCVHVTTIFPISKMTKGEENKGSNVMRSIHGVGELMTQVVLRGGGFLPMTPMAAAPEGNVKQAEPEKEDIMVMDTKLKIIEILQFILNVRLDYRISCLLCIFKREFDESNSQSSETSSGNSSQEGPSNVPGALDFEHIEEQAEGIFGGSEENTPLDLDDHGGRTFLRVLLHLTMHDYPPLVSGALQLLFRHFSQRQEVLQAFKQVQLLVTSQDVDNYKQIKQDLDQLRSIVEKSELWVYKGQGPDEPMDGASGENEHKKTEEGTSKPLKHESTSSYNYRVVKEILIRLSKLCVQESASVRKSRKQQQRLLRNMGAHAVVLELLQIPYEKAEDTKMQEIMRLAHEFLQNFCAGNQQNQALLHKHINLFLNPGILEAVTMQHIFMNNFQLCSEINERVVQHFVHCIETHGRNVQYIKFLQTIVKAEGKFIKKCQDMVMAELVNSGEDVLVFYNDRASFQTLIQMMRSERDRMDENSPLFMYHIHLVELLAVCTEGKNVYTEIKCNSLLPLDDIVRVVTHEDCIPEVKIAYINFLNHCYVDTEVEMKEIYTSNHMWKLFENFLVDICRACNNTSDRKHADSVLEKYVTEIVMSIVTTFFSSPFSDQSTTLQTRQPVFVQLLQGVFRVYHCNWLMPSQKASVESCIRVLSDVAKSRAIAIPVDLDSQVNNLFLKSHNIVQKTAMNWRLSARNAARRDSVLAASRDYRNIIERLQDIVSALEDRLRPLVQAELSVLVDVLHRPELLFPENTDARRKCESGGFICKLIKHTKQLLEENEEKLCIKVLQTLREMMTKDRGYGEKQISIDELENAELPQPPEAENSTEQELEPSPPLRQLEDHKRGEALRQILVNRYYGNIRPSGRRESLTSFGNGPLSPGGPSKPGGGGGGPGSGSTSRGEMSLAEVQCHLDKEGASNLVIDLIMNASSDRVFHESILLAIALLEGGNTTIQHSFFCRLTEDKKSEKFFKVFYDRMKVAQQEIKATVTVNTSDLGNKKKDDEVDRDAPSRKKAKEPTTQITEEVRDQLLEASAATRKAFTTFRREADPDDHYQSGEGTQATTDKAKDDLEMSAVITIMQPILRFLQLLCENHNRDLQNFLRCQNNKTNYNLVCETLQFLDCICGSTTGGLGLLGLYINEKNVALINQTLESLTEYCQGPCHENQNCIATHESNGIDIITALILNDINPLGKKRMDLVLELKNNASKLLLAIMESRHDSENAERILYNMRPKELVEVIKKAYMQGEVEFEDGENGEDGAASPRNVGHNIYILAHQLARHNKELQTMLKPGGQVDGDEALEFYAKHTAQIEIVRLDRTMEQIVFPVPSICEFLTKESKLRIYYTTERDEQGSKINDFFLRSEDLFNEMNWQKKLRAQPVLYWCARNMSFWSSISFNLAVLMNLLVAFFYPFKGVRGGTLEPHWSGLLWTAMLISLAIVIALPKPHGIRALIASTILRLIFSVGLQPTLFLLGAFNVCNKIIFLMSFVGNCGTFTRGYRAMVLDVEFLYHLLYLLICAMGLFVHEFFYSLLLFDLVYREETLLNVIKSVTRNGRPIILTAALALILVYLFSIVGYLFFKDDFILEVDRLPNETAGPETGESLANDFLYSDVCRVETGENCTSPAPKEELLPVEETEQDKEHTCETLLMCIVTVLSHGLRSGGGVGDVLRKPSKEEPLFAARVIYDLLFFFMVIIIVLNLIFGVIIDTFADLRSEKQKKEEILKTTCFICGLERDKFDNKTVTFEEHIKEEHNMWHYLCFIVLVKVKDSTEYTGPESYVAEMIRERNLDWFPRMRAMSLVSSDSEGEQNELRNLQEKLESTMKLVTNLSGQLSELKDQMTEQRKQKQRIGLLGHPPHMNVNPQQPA

Row | Substance | block of IP3-evoked Ca2+ release [1] | effect on SERCAs (Ca2+ uptake) [2] | Ca2+ release from the ER [3] | response to ML-SA1 [4]
1 | Heparin, sodium salt | completely | partial inhibition |  | 
2 | ML-SA1 |  |  | concentration-dependent Ca^2+ release | do not respond
